Source: paper PMC7866122, “Development of MTH1-Binding Nucleotide Analogs Based on 7,8-Dihalogenated 7-Deaza-dG Derivatives” (International Journal of Molecular Sciences, 2021)
“Also recorded” adds a separate entry of the source. Where two headings read alike, the source gives them in different places.

How the values were obtained:
MTH1 [1] = target: T1, MTH1 (Homo sapiens, UniProt P36639); assay: Inhibition of the MTH1 hydrolysis of 8-oxo-dGTP (HPLC); type: biochemical; settings: 50 μM 8-oxo-dGTP, 5 nM MTH1, pH 7.5, 37 °C, 10 min
Experimental: We examined whether the nucleoside diols, nucleoside monophosphate (NMP), and nucleoside triphosphate (NTP) derivatives inhibit the MTH1 hydrolysis of 8-oxo-dGTP. MTH1 and 8-oxo-dGTP were mixed with various concentrations of synthesized derivatives, and this mixture was incubated and analyzed by HPLC. In the case of diol compounds, 7,8-dichloro-7-deaza-dG (1), 7,8-dibromo-7-deaza-dG (2), and 7,8-diiodo-7-deaza-dG (3) exerted inhibitory effects on the hydrolytic activity of MHT1 at a micromolar level (Table 1, Entries 1–3). Their IC50 values were better than that of 8-iodo-7-deaza-dG (4) (Table 1, Entry 4).
Twenty microliters of MTH1 buffer (100 mM Tris-HCl, pH 7.5, 20 mM MgCl2, 200 mM NaCl, […] BSA, 40 mM DTT, and 50% glycerol), 10 μL (500 μM) of 8-oxo-dGTP, 55 μL of MilliQ, and 10 μL of various concentrations of substituted 7-deaza-dG derivatives were pre-incubated at 37 °C for 10 min (concentrations used: 7-deaza-dG, 7,8-dihalogenated-7-deaza-dG were 0, 0.5, 1, 2.5, 5, 10, 25, 50, 100, and 250 μM in 1% DMSO; 8-CF3-7-deazadGMP (3) was 0, 0.05, 0.1, 0.25, 0.5, 1, 2.5, 5, 10, and 25 μM; 7,8-dihalogenated-7-deaza-dGMP and –dGTP were 0, 0.0125, 0.025, 0.05, 0.1, 0.25, 0.5, 1, and 2.5 μM). Five microliters of MTH1 (0.1 pmol/μL in MTH1 buffer) was added, and the reaction mixture was incubated at 37 °C for 10 min. The resulting solutions were quenched with 100 μL of stop solution (5 mM EDTA). All samples were loaded on ice before the analysis with HPLC (HPLC conditions: A: 0.1 M TEAA, B: MeCN; Flow rate: 1.0 mL/min; Shiseido MG1 (4.6 × 250 mm); UV detector: 254 nm; 35 °C). The relative hydrolysis ratio values (ratio with inhibitor/ratio without inhibitor) were plotted at each inhibitor concentration. IC50 values were assessed using images.

MTH1 [2] = target: T1, MTH1; set-up: method as in earlier work; settings: inhibition of the hydrolytic activity of MTH1; ChemBioChem 17, 566 (2016); cited from earlier work
MTH1 [3] = target: T1, MTH1; assay: Steady-state kinetics of MTH1 hydrolysis of 8-oxo-dGTP (Lineweaver-Burk plot); type: biochemical; settings: 2 nM MTH1, 37 °C
From the text: We made a Lineweaver-Burk plot to calculate kinetic parameters (KM and kcat) in order to reveal the types of inhibition modes for MTH1. […] In the presence of new 7-deaza-dG monophosphate and triphosphate, kcat values were only slightly altered (Entries 2–7). On the other hand, all KM values increased (Entries 2–7).

MTH1 [4] = target: T1, MTH1; assay: Hydrolysis of triphosphate derivatives by MTH1 (HPLC time course); type: biochemical; settings: 50 μM dNTP, 5 nM MTH1, 37 °C, various times
Experimental: Since the shapes of synthesized triphosphate derivatives were similar to 8-oxo-dGTP, we investigated whether these triphosphate derivatives are hydrolyzed by MTH1. MTH1 and these triphosphate derivatives were mixed and incubated at 37 °C for various times, and hydrolysis reactions were analyzed by HPLC. […] However, in the case of 7,8-dihalogenated triphosphate derivatives, the peak of the corresponding monophosphate was not detected in HPLC following the treatment with MTH1 (Figure 2. 9: purple, 10: red and 11: blue lines).
The reaction mixture was pre-incubated at 37 °C for 10 min before the addition of MTH1 to a final volume of 100 L (final concentration: 20 mM Tris-HCl, pH 7.5, 4 mM MgCl2, 40 mM NaCl, […] bovine serum albumin (BSA), 8 mM dithiothreitol (DTT), 10% glycerol; 0.5 pmol MTH1; 50 μM 7,8-dihalogenated-7-deaza-dGTP […], 8-CF3-7-deaza-dGTP (4), and 8-oxo-dGTP). The resulting solutions were incubated at 37 °C for various times and quenched with 100 μL of stop solution (5 mM EDTA). All samples were loaded on ice before the analysis with HPLC (HPLC conditions: A: 0.1 M TEAA, B: CH3CN; Flow rate: 1.0 mL/min; Shiseido MG1 (4.6 × 250 mm); UV detector: 254 nm; column oven: 35 °C).
Figure 2 Time courses of the hydrolysis of 8-oxo-dGTP, 7-deaza-dGTP, and 7,8-dihalogenated-7-deaza-dGTP (9, 10, and 11) by MTH1. Reaction conditions: 20 mM Tris-HCl pH 7.5, 4 mM MgCl2, 40 mM NaCl, 80 μg/mL bovine serum albumin (BSA), 8 mM dithiothreitol (DTT), 10% glycerol; 50 μM 8-oxo-dGTP, 5 nM MTH1; 50 μM dNTPs; incubated at 37 °C for various times. Hydrolysis reactions were analyzed by HPLC, and the cleavage rate was calculated from the peak area.

MTH1 [5] = target: T1, MTH1; set-up: method as in doi:10.1016/j.tet.2014.01.047, PMID 26879218, PMID 27372838; settings: earlier work of the authors; cited from earlier work
[6] = 8-oxo-dGTP hydrolysis in the presence of inhibitor, 10–250 μM 8-oxo-dGTP
[7] = substrate 8-oxo-dGTP, in the absence of inhibitors

| IC50 (MTH1 [1]) [nM] | kcat (MTH1 [3]; [6]) [s⁻¹] | Ki (MTH1 [3]; 10–250 μM 8-oxo-dGTP) [nM] | Hydrolysis to the monophosphate by MTH1 (MTH1 [4]) | SMILES | other results |
| --- | --- | --- | --- | --- | --- |
| 22500 |  |  |  | Nc1nc2c(c(Cl)c(Cl)n2[C@H]2C[C@H](O)[C@@H](CO)O2)c(=O)[nH]1 [Compound 1, 7,8-di-Chloro-7-deaza-2′-deoxy-guanosine] |  |
| 10700 |  |  |  | Nc1nc2c(c(Br)c(Br)n2[C@H]2C[C@H](O)[C@@H](CO)O2)c(=O)[nH]1 [Compound 2, 7,8-di-Bromo-7-deaza-2′-deoxy-guanosine] |  |
| 17000 |  |  |  | Nc1nc2c(c(I)c(I)n2[C@H]2C[C@H](O)[C@@H](CO)O2)c(=O)[nH]1 [Compound 3, 7,8-di-Iodo-7-deaza-2′-deoxy-guanosine] |  |
| 260 | 9.1 | 27.9 |  | Nc1nc2c(c(Br)c(Br)n2[C@H]2C[C@H](O)[C@@H](COP(=O)(O)O)O2)c(=O)[nH]1 [Compound 6, 7,8-di-Bromo-7-deaza-2′-deoxy-guanosine monophosphate] |  |
| 160 | 9.3 | 28.1 | not detected | Nc1nc2c(c(Cl)c(Cl)n2[C@H]2C[C@H](O)[C@@H](COP(=O)(O)OP(=O)(O)OP(=O)(O)O)O2)c(=O)[nH]1 [Compound 9, 7,8-di-Chloro-7-deaza-2′-deoxy-guanosine triphosphate] |  |

The next lines start with the molecule.

| SMILES | IC50 (MTH1 [1]) [nM] | kcat (MTH1 [3]; [6]) [s⁻¹] | Ki (MTH1 [3]; 10–250 μM 8-oxo-dGTP) [nM] | Hydrolysis to the monophosphate by MTH1 (MTH1 [4]) | other results |
| --- | --- | --- | --- | --- | --- |
| Nc1nc2c(cc(I)n2[C@H]2C[C@H](O)[C@@H](CO)O2)c(=O)[nH]1 [Compound 4, 8-iodo-7-deaza-dG] |  |  |  |  | IC50 (MTH1 [2]): 44800 nM |
| Nc1nc2c(c(Cl)c(Cl)n2[C@H]2C[C@H](O)[C@@H](COP(=O)(O)O)O2)c(=O)[nH]1 [Compound 5, 7,8-di-Chloro-7-deaza-2′-deoxy-guanosine monophosphate] | 130 | 9.7 | 37 |  |  |
| Nc1nc2c(c(I)c(I)n2[C@H]2C[C@H](O)[C@@H](COP(=O)(O)O)O2)c(=O)[nH]1 [Compound 7, 7,8-di-Iodo-7-deaza-2′-deoxy-guanosine monophosphate] | 130 | 10.7 |  | not hydrolyzed |  |
| Nc1nc2c(ccn2[C@H]2C[C@H](O)[C@@H](COP(=O)(O)OP(=O)(O)OP(=O)(O)O)O2)c(=O)[nH]1 [Compound 7-deaza-dGTP, 7-deaza-dGTP, reference compound] |  |  |  | hydrolyzed, but more slowly than 8-oxo-dGTP |  |
| Nc1nc2c(cc(I)n2[C@H]2C[C@H](O)[C@@H](COP(=O)(O)O)O2)c(=O)[nH]1 [Compound 8, 8-Iodo-7-deaza-2′-deoxy-guanosine monophosphate] | 840 |  |  |  |  |
| NC1=NC(=O)C2=NC(=O)N([C@H]3C[C@H](O)[C@@H](COP(=O)(O)OP(=O)(O)OP(=O)(O)O)O3)C2=N1 [Compound 8-oxo-dGTP, 8-oxo-2′-deoxyguanosine-5′-triphosphate, reference compound] |  |  |  | rapidly hydrolyzed | Km (MTH1 [3]; [7]): 17.6 µM; kcat (MTH1 [3]; [7]): 10.6 s⁻¹ |
| Nc1nc2c(c(Br)c(Br)n2[C@H]2C[C@H](O)[C@@H](COP(=O)(O)OP(=O)(O)OP(=O)(O)O)O2)c(=O)[nH]1 [Compound 10, 7,8-di-Bromo-7-deaza-2′-deoxy-guanosine triphosphate] | 110 | 9.4 | 24.2 | not detected; also recorded: not hydrolyzed |  |
| Nc1nc2c(c(I)c(I)n2[C@H]2C[C@H](O)[C@@H](COP(=O)(O)OP(=O)(O)OP(=O)(O)O)O2)c(=O)[nH]1 [Compound 11, 7,8-di-Iodo-7-deaza-2′-deoxy-guanosine triphosphate] | 130 | 11.9 | 30.4 | not detected |  |
| Nc1nc2c(cc(I)n2[C@H]2C[C@H](O)[C@@H](COP(=O)(O)OP(=O)(O)OP(=O)(O)O)O2)c(=O)[nH]1 [Compound 12, 8-iodo-7-deaza-dGTP] |  |  |  |  | IC50 (MTH1 [2]): 420 nM; Ki (MTH1 [5]): 61.7 nM |
| CC(=O)OC[C@H]1O[C@@H](n2ccc3c(=O)[nH]c(N)nc32)C[C@@H]1OC(C)=O [Compound 13, 3′,5′-di-O-Acetyl-7-deaza-2′-deoxyguanosine] |  |  |  | not hydrolyzed |  |
| CNc1cc(-c2cccc(Cl)c2Cl)nc(N)n1 [TH287, reference compound] |  |  |  |  | IC50 (MTH1 [2]): 10 nM |
